Test results reported in patent US20200289482A1, “CYSTIC FIBROSIS TRANSMEMBRANE CONDUCTANCE REGULATOR MODULATORS FOR TREATING AUTOSOMAL DOMINANT POLYCYSTIC KIDNEY DISEASE” (The Johns Hopkins University, priority 2017, published 2020).

Assays:
Format in all cases: cell-based, mouse
[1] = tested on: cAMP in PN cells; test: Cyclic AMP enzyme immunoassay in cells; conditions: for increase of cAMP activity in PN cells: treating PN cells with forskolin or IBMX
Description: FIG. 4A, FIG. 4B, FIG. 4C, FIG. 4D, and FIG. 4E show (FIG. 4A-FIG. 4B) cAMP levels are reduced by VX-809. (FIG. 4A) cAMP levels in mouse tissue were reduced by VX-809. The kidney samples (n=6) analyzed were taken from those depicted in FIG. 1. (FIG. 4B) Confluent PN and PH cells were treated with VX-809 (10 μM) or DMSO for 16 h and then treated with forskolin (100 μM) for 30 min before the cells were harvested for the assay. Columns represent means±SEM. Statistical analysis was performed using a two-tailed Student's t-test. Each set of data is from three individual wells; Note that resting cAMP is greater in PN vs PH cells as previously shown (25). Also note that forskolin caused a large increase in cAMP. A smaller increase occurred with IBMX. However, the increase induced by forskolin alone was similar to that by IBMX plus forskolin. […] (FIG. 4C, FIG. 4D, and FIG. 4E) Adenylyl cyclase expression. (FIG. 4C) Western blot showing the expression of adenylyl cyclase (AC) 6 and AC3 in treated and control PN cells. (FIG. 4D-FIG. 4E) Columns represent means±SEM of the AC3 and AC6 expression. The data were analyzed by non-parametric t-test. The experiment was repeated four times. For all graphs, *P<0.05, **P<0.01, and ***P<0.001;
It has been shown previously in both animal and cell culture models of ADPKD that cells lacking functional PC1 have elevated cAMP levels when compared to normal (24). To assess the effect of CFTR correctors, cAMP activity was measured in PC1 conditional knockout mouse kidneys and in PN cells that were either left untreated or treated with VX-809. […] Cells were treated with forskolin, which increased cAMP levels drastically (FIG. 4B). […] Treating PN cells with forskolin or IBMX (FIG. 4B) increased the cAMP activity by ˜10-fold.
Confluent cells were treated with VX-809 (10 μM) or DMSO for 16 h before being harvested for assay. Cyclic AMP levels were measured with a direct cAMP Enzyme Immunoassay Kit (Sigma, # CA200) according to the manufacturer's protocol. The results are expressed as pmole/ml. Statistical analysis was performed using a two-tailed Student's t-test.

[2] = tested on: Hsp90; test: Cycloheximide chase, disappearance of Hsp90 in PN cells; conditions: cycloheximide 25 μM, 8 h
Description: (§1) FIG. 9A, FIG. 9B, FIG. 9C, FIG. 9D, FIG. 9E, FIG. 9F, FIG. 9G, and FIG. 9H show Hsp27, HSp70, and Hsp90 expression in PN cells treated with VX-809 and/or cycloheximide. (A) Pkd1 null (PN) cells were treated with VX-809 (10 μM) and/or with cycloheximide (25 μM) for indicated time points before being harvested for the assay. (FIG. 9A) Western blot showing expression of Hsp27, Hsp70, and Hsp90 in VX-809-(16 h), cycloheximide-treated, or control PN cells. ((FIG. 9B. (FIG. 9C, and (FIG. 9D) Columns represent averages±standard errors of Hsp27, Hsp70, and Hsp90 expression in cells treated with VX-809 and/or cycloheximide. ((FIG. 9E) Western blot showing expression of Hsp27, Hsp70, and Hsp90 in PN cells treated with VX-809+cycloheximide or control PN cells. ((FIG. 9F, (FIG. 9G, and (FIG. 9H) Columns represent averages±standard errors of Hsp27, Hsp70, and Hsp90 expression in cells treated only with cycloheximide or in control PN cells. Data were analyzed by non-parametric t-test. The experiments were repeated 3-5 times. *P<0.05, **P<0.01;
(§2) To gain more insight into the mechanism whereby VX-809 alters Hsp protein levels, translation was inhibited by using cycloheximide (35) and the disappearance of the three Hsps was monitored. […] Hsp 90 was reduced by approximately 25%, and Hsp27 was unchanged.

[3] = tested on: Hsp70; test: Cycloheximide chase, disappearance of Hsp70 in PN cells; conditions: cycloheximide 25 μM, 8 h
Description: as §1, §2

[4] = tested on: Hsp27; test: Cycloheximide chase, disappearance of Hsp27 in PN cells; conditions: cycloheximide 25 μM, 8 h
Description: as §1, §2

Row | Compound | increase of cAMP activity in PN cells [1] | steady-state level of Hsp90 after cycloheximide alone [2] | steady-state level of Hsp70 after cycloheximide alone [3] | steady-state level of Hsp27 after cycloheximide alone [4] | forskolin elevates cAMP activity ([1]; as restated at the end of Example 4)
1 | CC(C)Cn1c(=O)n(C)c(=O)c2[nH]cnc21 [IBMX, 3-isobutyl-1-methylxanthine] | ~10 fold |  |  |  | 
2 | C[C@@H]1C[C@@H]([C@H](O)CC2CC(=O)NC(=O)C2)C(=O)[C@@H](C)C1 [cycloheximide] |  | unchanged over the 8 h | unchanged over the 8 h | unchanged over the 8 h | 
3 | C=C[C@@]1(C)CC(=O)[C@]2(O)[C@@]3(C)[C@@H](O)CCC(C)(C)[C@@H]3[C@H](O)[C@H](OC(C)=O)[C@@]2(C)O1 [forskolin] | ~10 fold |  |  |  | ~500 fold
